# Reference: US20050049206A1, “Compositions of flavonoids and flavonoid-containing extracts and the treatment of diseases” (priority 2003, published 2005)
# Entries after “also recorded” stand apart in the source; their conditions may differ. Where two headings read alike, the source gives them in different places.
# What was measured:
# [1] = system: pulmonary fibrosis in bleomycin-induced rats; assay: Histopathological / morphologic examination of lungs in bleomycin-induced pulmonary fibrosis rats; type: in vivo, Sprague-Dawley rats; settings: for Alveolitis Score 0 (number of rats) / Alveolitis Score I (number of rats) / Alveolitis Score II (number of rats) / Alveolitis Score III (number of rats) / Pulmonary Fibrosis Score 0 (number of rats) / Pulmonary Fibrosis Score I (number of rats) / Pulmonary Fibrosis Score II (number of rats) / Pulmonary Fibrosis Score III (number of rats): BL-instilled rats, day 28, n=10; for pulmonary anti-fibrotic activity: animal experiments (rats)
# [2] = system: pulmonary fibrosis in bleomycin-induced rats; assay: Assays of bronchoalveolar lavage fluid in bleomycin-induced pulmonary fibrosis rats; type: in vivo, Sprague-Dawley rats; settings: BL-instilled rats, day 28, n=10
# Acute toxicity (LD50) = settings: in vivo
# [3] = system: CCl4-induced liver cirrhosis in rats; assay: Hepatic cirrhosis in CCl4-induced rats; type: in vivo, Sprague-Dawley rats; settings: for ALT decrease / AST decrease: serum, 450 mg/kg by gavage for 3 weeks after 8 weeks CCl4, P<0.001 (FIG. 10)
# Description: Animals and method of baicalin dosing: Fibrosis was induced by chronic CCl4 administration to rats. Sprague-Dawley rats weighing 200-240 g received three doses a week i.p. of a mixture 1:6 of CCl4-mineral oil for the first week; then the second week the ratio was 1:5, the third week 1:4, and the 4th-8th weeks the ratio was 1:3 [Armendariz Biochim Biophys Acta 1997;1353:241-252, Armendariz Hepatology 1991;14:895-900.]. CCl4 intoxication was stopped and cirrhotic animals were then fed by gavage either with the baicalin (n=10) at the dosage of 450 mg/kg or saline (n=10) as a control for 3 more weeks.
# Statistical analysis: Results relative to the number of experiments indicated, are expressed as mean ±SD. Statistical analyses were perfomed using Student's t-test.
# Preparation of liver homogenates: Rats were killed at indicated times and liver homogenates were prepared from 150 mg of tissue as described [Gao Hum Gene Ther 1999;10:911-922.] and kept at −70° C. At the same time, serum samples were obtained and kept at −20° C. until used. Total protein levels in serum were determined using Bradford assay of protein quantification [Bradford Anal Biochem 1976;72:248-254.].
# Biochemical assays: Blood was drawn from control and experimental cirrhotic animals at the moment of sacrifice and serum transaminases alanine aminotransferase (ALT), aspartate aminotransferase (AST) and alkaline phosphatase (ALP) were determined in an automated Sincron-7 machine.
# Hydroxyproline content biochemical determinations: Liver samples were obtained at the moment of sacrifice and 150 mg were subjected to acid hydrolysis to determine the amount of hydroxyproline according to Rojkind and coworkers [Rojkind Anal Biochem 1974; 57:1-7].
# [4] = baicalein by gavage once a day (350 or 450 mg/kg/day)
# [5] = baicalin 450 mg/kg/day by gavage
smiles,measurement,setting,value
"O=c1cc(-c2ccccc2)oc2cc(O)c(O)c(O)c12 [Baicalein, 5,6,7-Trihydroxy-2-phenyl-4H-chromen-4-one]",Alveolitis Score 0 (number of rats),[1]; baicalein by gavage once a day,0
same,Alveolitis Score I (number of rats),[1]; baicalein by gavage once a day,8
same,Alveolitis Score II (number of rats),[1]; baicalein by gavage once a day,2
same,Alveolitis Score III (number of rats),[1]; baicalein by gavage once a day,0
same,Pulmonary Fibrosis Score 0 (number of rats),[1]; baicalein by gavage once a day,0
same,Pulmonary Fibrosis Score I (number of rats),[1]; baicalein by gavage once a day,7
same,Pulmonary Fibrosis Score II (number of rats),[1]; baicalein by gavage once a day,3
same,Pulmonary Fibrosis Score III (number of rats),[1]; baicalein by gavage once a day,0
same,pulmonary anti-fibrotic activity,[1],dramatic and novel pulmonary anti-fibrotic activity
same,extracellular fibers and mononuclear cell alveolitis of lungs compared with the BL group,"[1]; baicalein by gavage, BL-rat model",considerably less extracellular fibers and mononuclear cell alveolitis
same,fibrotic score (lung),"[1]; oral baicalein, BL-induced rats",dramatic effect
same,LDH,[2]; [4],1389.61 ± 526.34 U/L
same,Mononuclear cells,[2]; [4],501.0 ± 310.2 ×10^4/ml
same,Protein,[2]; [4],1.95 ± 0.35 g/L
same,LD50,Acute toxicity (LD50),11000 mg/kg
same,acute toxicity,Acute toxicity (LD50),about 11 g/kg body weight
same,LD50,Acute toxicity (LD50); read-out: LD50,14000 mg/kg
"O=C(O)[C@H]1O[C@@H](Oc2cc3oc(-c4ccccc4)cc(=O)c3c(O)c2O)[C@H](O)[C@@H](O)[C@@H]1O [Baicalin, (2S,3S,4S,5R,6S)-6-(5,6-dihydroxy-4-oxo-2-phenyl-4H-chromen-7-yloxy)-tetrahydro-3,4,5-trihydroxy-2H-pyran-2-carboxylic acid]",Alveolitis Score 0 (number of rats),[1]; [5],0
same,Alveolitis Score I (number of rats),[1]; [5],7
same,Alveolitis Score II (number of rats),[1]; [5],3
same,Alveolitis Score III (number of rats),[1]; [5],0
same,Pulmonary Fibrosis Score 0 (number of rats),[1]; [5],0
same,Pulmonary Fibrosis Score I (number of rats),[1]; [5],6
same,Pulmonary Fibrosis Score II (number of rats),[1]; [5],4
same,Pulmonary Fibrosis Score III (number of rats),[1]; [5],0
same,pulmonary anti-fibrotic activity,[1],dramatic and novel pulmonary anti-fibrotic activity
same,lung lesions (morphology) compared with the BL group,"[1]; baicalin-treated BL-induced rats, day 28, HE staining",of a more mild nature than that of the BL group; also recorded: considerably less extracellular fibers and mononuclear cell alveolitis; also recorded: of a more mild nature than those of the BL group
same,fibrotic index (lung),"[1]; oral baicalin, BL-induced rats",dramatic effect
same,"macroscopic view of cirrhotic livers, treated vs non-treated","[3]; 450 mg/kg baicalin, n=10, P<0.001 (FIG. 8)",remarkable differences in the entire granular texture of the liver
same,hydroxyproline level of liver (relative collagen content per g of liver) vs non-treated,"[3]; baicalin 450 mg/kg by gavage for 3 weeks after 8 weeks CCl4, P<0.05 (FIG. 9)",significantly lower
same,liver fibrosis reduction as compared with saline controls,"[3]; baicalin 450 mg/kg daily by gavage for 3 weeks after 8 weeks CCl4, n=10",40%
same,fibrotic index (liver),"[3]; oral baicalin 450 mg/kg, CCl4 rats (FIG. 8)",dramatic effect
same,ALT decrease,[3],over 2 fold
same,AST decrease,[3],over 3 fold
same,LDH,[2]; [5],1331.61 ± 516.68 U/L
same,Mononuclear cells,[2]; [5],465.0 ± 320.2 ×10^4/ml
same,Protein,[2]; [5],1.85 ± 0.52 g/L
same,acute toxicity,Acute toxicity (LD50),~14 g/kg body weight
same,LD50,Acute toxicity (LD50); read-out: LD50,11000 mg/kg
"Cc1ccc(=O)n(-c2ccccc2)c1 [Pirfenidone, reference compound]",ALT decrease,[3],over 2 fold
same,AST decrease,[3],over 3 fold
